Laboratory results as given in patent publication US20240400507A1, “Substituted Indole Compounds and the Use Thereof” (TROBIO THERAPEUTICS PTY LTD, priority 2021, published 2024).
Entries after “also recorded” stand apart in the source; their conditions may differ.

target: T1, Tpm4.2-containing actin microfilaments (Mus musculus, UniProt Q6IRU2); assay: Disruption of Tpm4.2-containing actin microfilaments in PMEF cells, images assessed visually; assay type: cell-based; details: PMEF cells, treatment versus control condition
T1 construct: investigated in primary mouse embryonic fibroblast (PMEF) cells; endogenous in cells; host or cells: primary mouse embryonic fibroblast (PMEF) cells
T1 sequence (Q6IRU2 whole entry): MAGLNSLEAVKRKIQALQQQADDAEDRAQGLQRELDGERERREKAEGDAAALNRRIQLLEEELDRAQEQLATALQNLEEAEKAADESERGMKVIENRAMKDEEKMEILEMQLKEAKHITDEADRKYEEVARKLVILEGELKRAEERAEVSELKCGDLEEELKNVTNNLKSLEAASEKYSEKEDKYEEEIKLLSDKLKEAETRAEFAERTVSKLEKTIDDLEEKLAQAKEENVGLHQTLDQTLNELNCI
Experimental: Example 2—Anti-tropomyosin activity of compounds of formula (I) The ability of compounds of the disclosure to disrupt Tpm4.2-containing actin microfilaments was investigated in primary mouse embryonic fibroblast (PMEF) cells. Cells were seeded at 3×10^4 cells per well in a volume of 1000 μL complete media onto a 12 well plate containing 13 mm coverslips and left to plate down for 24 hours prior to treatment. Cells were then treated with DMSO and two concentrations of the test compounds. 24 hours post-treatment, cells were fixed with 16% paraformaldehyde (PBS) and stained with rabbit polyclonal anti-tropomyosin 6/9d antibody to visualise Tpm4.2. Single plane images were obtained using the Olympus IX83 epi-fluorescence microscope. Ten fields of view were collected for both Tpm4.2 fluorophore and 488-Atto-Phalloidin with each treatment condition. The images were assessed visually to determine if the Tpm4.2 filament network had been disrupted under the treatment condition (Table 1).

SMILES | Effect on Tpm4.2 filament network in representative image (FIG. 1)
CC(CO)(CO)NCCn1ccc2ccc(NCCc3ccc(F)cc3)cc21 [Compound 13, 2-((2-(6-((4-fluorophenethyl)amino)-1H-indol-1-yl)ethyl)amino)-2-methylpropane-1,3-diol] | parallel filament bundles observed in the control condition are lost and punctate aggregations of Tpm4.2 are observed near the nucleus; also recorded: disruption of the Tpm4.2 filament network

same assay, conditions: primary mouse embryonic fibroblast (PMEF) cells, 24 hours treatment, anti-tropomyosin antibody staining of Tpm4.2

SMILES | Filament Disruption (minimum test concentration at which filament disruption was observed)
CC(C)(CO)NCCn1ccc2ccc(OCCc3ccc(F)cc3)cc21 [Compound 5, 2-((2-(6-(4-fluorophenethoxy)-1H-indol-1-yl)ethyl)amino)-2-methylpropan-1-ol] | 2.0 µM
OCC(CO)NCCn1ccc2ccc(OCCc3ccc(F)cc3)cc21 [Compound 6, 2-((2-(6-(4-fluorophenethoxy)-1H-indol-1-yl)ethyl)amino)propane-1,3-diol] | 4.0 µM
C[C@@H](CO)NCCn1ccc2ccc(OCCc3ccc(F)cc3)cc21 [Compound 7, (S)-2-((2-(6-(4-fluorophenethoxy)-1H-indol-1-yl)ethyl)amino)propan-1-ol] | 2.0 µM
C[C@H](CO)NCCn1ccc2ccc(OCCc3ccc(F)cc3)cc21 [Compound 8, (R)-2-((2-(6-(4-fluorophenethoxy)-1H-indol-1-yl)ethyl)amino)propan-1-ol] | 2.0 µM
OCCNCCn1ccc2ccc(OCCc3ccc(F)cc3)cc21 [Compound 9, 2-((2-(6-(4-fluorophenethoxy)-1H-indol-1-yl)ethyl)amino)ethan-1-ol] | 4.0 µM
CC(C)(C)NCCn1ccc2ccc(OCCc3ccc(F)cc3)cc21 [Compound 10, N-(2-(6-(4-fluorophenethoxy)-1H-indol-1-yl)ethyl)-2-methylpropan-2-amine] | 2.0 µM
Fc1ccc(CCOc2ccc3ccn(CCCN4CCOCC4)c3c2)cc1 [Compound 11, 4-(3-(6-(4-fluorophenethoxy)-1H-indol-1-yl)propyl)morpholine] | 20 µM
COCC(C)(COC)NCCn1ccc2ccc(OCCc3ccc(F)cc3)cc21 [Compound 12, N-(2-(6-(4-fluorophenethoxy)-1H-indol-1-yl)ethyl)-1,3-dimethoxy-2-methylpropan-2-amine] | 9.0 µM
CC(CO)(CO)NCCn1ccc2ccc(NCCc3ccc(F)cc3)cc21 [Compound 13, 2-((2-(6-((4-fluorophenethyl)amino)-1H-indol-1-yl)ethyl)amino)-2-methylpropane-1,3-diol] | 2.0 µM
CC(CO)(CO)NCCn1ccc2ccc(C(=O)NCc3ccc(F)cc3)cc21 [Compound 14, 1-(2-((1,3-dihydroxy-2-methylpropan-2-yl)amino)ethyl)-N-(4-fluorobenzyl)-1H-indole-6-carboxamide] | 2.0 µM
CC(CO)(CO)NCCn1ccc2ccc(C(=O)OCc3ccc(F)cc3)cc21 [Compound 15, 4-fluorobenzyl 1-(2-((1,3-dihydroxy-2-methylpropan-2-yl)amino)ethyl)-1H-indole-6-carboxylate] | 6.5 µM
Cc1ccccc1CCOc1ccc2ccn(CCNC(C)(CO)CO)c2c1 [Compound 16, 2-methyl-2-((2-(6-(2-methylphenethoxy)-1H-indol-1-yl)ethyl)amino)propane-1,3-diol] | 7.5 µM
Cc1cccc(CCOc2ccc3ccn(CCNC(C)(CO)CO)c3c2)c1 [Compound 17, 2-methyl-2-((2-(6-(3-methylphenethoxy)-1H-indol-1-yl)ethyl)amino)propane-1,3-diol] | 2.0 µM
Cc1ccc(CCOc2ccc3ccn(CCNC(C)(CO)CO)c3c2)cc1 [Compound 18, 2-methyl-2-((2-(6-(4-methylphenethoxy)-1H-indol-1-yl)ethyl)amino)propane-1,3-diol] | 5.0 µM
COc1ccccc1CCOc1ccc2ccn(CCNC(C)(CO)CO)c2c1 [Compound 19, 2-methyl-2-((2-(6-(2-methoxyphenethoxy)-1H-indol-1-yl)ethyl)amino)propane-1,3-diol] | 7.0 µM
COc1cccc(CCOc2ccc3ccn(CCNC(C)(CO)CO)c3c2)c1 [Compound 20, 2-methyl-2-((2-(6-(3-methoxyphenethoxy)-1H-indol-1-yl)ethyl)amino)propane-1,3-diol] | 2.0 µM
COc1ccc(CCOc2ccc3ccn(CCNC(C)(CO)CO)c3c2)cc1 [Compound 21, 2-methyl-2-((2-(6-(4-methoxyphenethoxy)-1H-indol-1-yl)ethyl)amino)propane-1,3-diol] | 2.5 µM
CC(CO)(CO)NCCn1ccc2ccc(OCCc3ccccc3C(F)(F)F)cc21 [Compound 22, 2-methyl-2-((2-(6-(2-(trifluoromethyl)phenethoxy)-1H-indol-1-yl)ethyl)amino)propane-1,3-diol] | 2.5 µM
CC(CO)(CO)NCCn1ccc2ccc(OCCc3ccc(F)c(F)c3)cc21 [Compound 24, 2-methyl-2-((2-(6-(3,4-difluorophenethoxy)-1H-indol-1-yl)ethyl)amino)propane-1,3-diol] | 2.5 µM
Cc1ccc(CCOc2ccc3ccn(CCNC(C)(CO)CO)c3c2)cc1C [Compound 25, 2-methyl-2-((2-(6-(3,4-dimethylphenethoxy)-1H-indol-1-yl)ethyl)amino)propane-1,3-diol] | 2.5 µM

target: T1, Tpm4.2-containing actin microfilaments; assay: as above; assay type: cell-based; details: PMEF cells stably expressing Tpm4.2 labelled with the NeonGreen fluorophore (footnote a)

SMILES | Filament Disruption (minimum test concentration at which filament disruption was observed)
CC(CO)(CO)NCCn1ccc2ccc(OCCc3ccccc3)cc21 [Compound 1, 2-((2-(6-phenethoxy-1H-indol-1-yI)ethyl)amino)-2-methylpropane-1,3-diol] | 4.0^a μM
CC(CO)(CO)NCCn1ccc2ccc(OCCc3ccccc3F)cc21 [Compound 2, 2-((2-(6-(2-fluorophenethoxy)-1H-indol-1-yl)ethyl)amino)-2-methylpropane-1,3-diol] | 4.0^a μM
CC(CO)(CO)NCCn1ccc2ccc(OCCc3cccc(F)c3)cc21 [Compound 3, 2-((2-(6-(3-fluorophenethoxy)-1H-indol-1-yl)ethyl)amino)-2-methylpropane-1,3-diol] | 4.0^a μM
CC(CO)(CO)NCCn1ccc2ccc(OCCc3ccc(F)cc3)cc21 [Compound 4, 2-((2-(6-(4-fluorophenethoxy)-1H-indol-1-yl)ethyl)amino)-2-methylpropane-1,3-diol] | 3.0^a μM
